Source: patent publication US9283280B2, “Compositions for drug administration” (Aegis Therapeutics, LLC, priority 2008, dated 2016)

Assays:
[1] = test system: blood D-glucose; assay: Insulin eye drops with absorption enhancer in xylazine/ketamine-anesthetized hyperglycemic rats, blood D-glucose; type: in vivo, rat; settings: for hypoglycemic effect / insulin absorption enhancement: eye drops 0.2% insulin + 0.5% enhancer
[2] = test system: blood D-glucose; assay: Glucagon eye drops with surfactant in rats, elevation of blood D-glucose; settings: for Blood Glucose Concentration: glucagon eye drops + 0.5% surfactant added after 120 min
Protocol: Glucagon absorption from the eye was measured in rats given eye drops containing various surfactants plus glucagon (30 μg) (Eli Lilly, Indianapolis, Ind.) by monitoring an elevation in blood D-glucose levels. In these experiments, rats were anesthetized with sodium pentobarbital rather than xylazine/ketamin.
Paired animals that receive eye drops containing the surfactant alone, or glucagon alone, were compared to animals receiving eye drops with the surfactant plus glucagon.

[3] = Intranasal triptans with alkylsaccharide in rats, plasma levels by HPLC; type: in vivo;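 also: rats in groups of eight given 20 µL into one nostril, dose expressed as triptan free base, Cmax and Tmax read from plasma concentration–time curves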
Protocol: Each set of drug solutions is administered to six groups of eight rats each by 20 uL instillation to a single nare of each animal. […] After the last blood sample is collected each animal is cuthanizcd with CO2. After blood collection, plasma is immediately prepared from each blood sample using lithium/heparin as the anticoagulant. Plasma samples are stored at −70° C. until analyzed. […] The observed Tmax values from each plot is determined by inspection of the concentration vs time plots and recorded as shown in Table XII. The doses designated in this table reflect amounts of triptan free base in each case.

[4] = 0.5% surfactant, time −10 min, before insulin eye drops
[5] = 0.5% surfactant, time −20 min, before insulin eye drops
[6] = insulin eye drops + 0.5% surfactant, time 0 min
[7] = insulin eye drops + 0.5% surfactant, time 10 min
[8] = insulin eye drops + 0.5% surfactant, time 20 min
[9] = insulin eye drops + 0.5% surfactant, time 30 min
[10] = insulin eye drops + 0.5% surfactant, time 40 min
[11] = insulin eye drops + 0.5% surfactant, time 50 min
[12] = insulin eye drops + 0.5% surfactant, time 60 min
[13] = insulin eye drops + 0.5% surfactant, time 70 min
[14] = insulin eye drops + 0.5% surfactant, time 80 min
[15] = insulin eye drops + 0.5% surfactant, time 90 min
[16] = insulin eye drops + 0.5% surfactant, time 100 min
[17] = insulin eye drops + 0.5% surfactant, time 110 min
[18] = insulin eye drops + 0.5% surfactant, time 120 min
[19] = Naratriptan 0.22 mg/kg intranasal, alkylsaccharide 0.02%
[20] = Naratriptan 0.22 mg/kg intranasal, alkylsaccharide 0.05%
[21] = Naratriptan 0.22 mg/kg intranasal, alkylsaccharide 0.1%
[22] = Naratriptan 0.22 mg/kg intranasal, alkylsaccharide 0.5%
[23] = Naratriptan 0.22 mg/kg intranasal, alkylsaccharide 2%
[24] = Rizatriptan […] intranasal, alkylsaccharide 0.02%
[25] = Rizatriptan […] intranasal, alkylsaccharide 0.05%
[26] = Rizatriptan […] intranasal, alkylsaccharide 0.1%
[27] = Rizatriptan […] intranasal, alkylsaccharide 0.5%
[28] = Rizatriptan […] intranasal, alkylsaccharide 2%
[29] = Sumatriptan 6.2 mg/kg intranasal, alkylsaccharide 0.02%
[30] = Sumatriptan 6.2 mg/kg intranasal, alkylsaccharide 0.05%
[31] = Sumatriptan 6.2 mg/kg intranasal, alkylsaccharide 0.1%
[32] = Sumatriptan 6.2 mg/kg intranasal, alkylsaccharide 0.5%
[33] = Sumatriptan 6.2 mg/kg intranasal, alkylsaccharide 2%

Compound: decylsucrose
- hypoglycemic effect / insulin absorption enhancement [1]: effective in reducing blood glucose levels
- blood glucose level ([1]; insulin eye drops + 0.5% alkyl saccharide, time 0 min): 313 mg/dL
- blood glucose level ([1]; insulin eye drops + 0.5% alkyl saccharide, time 120 min): 164 mg/dL

Compound: CCCCCCCOC1O[C@H](CO)[C@@H](O)[C@H](O)[C@H]1O (some centres unmarked) [heptylglucoside, heptylglucopyranoside]
- hypoglycemic effect / insulin absorption enhancement [1]: ineffective

Compound: CCCCCCCCCCO[C@@H]1O[C@H](CO)[C@@H](O[C@H]2O[C@H](CO)[C@@H](O)[C@H](O)[C@H]2O)[C@H](O)[C@H]1O [decyl maltoside, decyl-β-D-maltoside]
- glucagon absorption / blood D-glucose values ([2]; eye drops surfactant plus glucagon in rats previously treated with surfactant plus insulin eye drops): increase significantly
- Blood Glucose Concentration ([2]; time 130 min): 95 mg/dL
- Blood Glucose Concentration ([2]; time 140 min): 99 mg/dL
- Blood Glucose Concentration ([2]; time 150 min): 132 mg/dL
- Blood Glucose Concentration ([2]; time 160 min): 157 mg/dL
- Blood Glucose Concentration ([2]; time 170 min): 171 mg/dL
- Blood Glucose Concentration ([2]; time 180 min): 180 mg/dL
- Blood Glucose Concentration ([2]; time 190 min): 189 mg/dL
- Blood Glucose Concentration [1, 4]: 287 mg/dL
- Blood Glucose Concentration [1, 5]: 249 mg/dL
- hypoglycemic effect / insulin absorption enhancement [1]: prompt and sustained fall in blood glucose levels
- Blood Glucose Concentration [1, 6]: 337 mg/dL
- Blood Glucose Concentration [1, 7]: 304 mg/dL
- Blood Glucose Concentration [1, 8]: 292 mg/dL
- Blood Glucose Concentration [1, 9]: 221 mg/dL
- Blood Glucose Concentration [1, 10]: 164 mg/dL
- Blood Glucose Concentration [1, 11]: 138 mg/dL
- Blood Glucose Concentration [1, 12]: 114 mg/dL
- Blood Glucose Concentration [1, 13]: 104 mg/dL
- Blood Glucose Concentration [1, 14]: 110 mg/dL
- Blood Glucose Concentration [1, 15]: 120 mg/dL
- Blood Glucose Concentration [1, 16]: 92 mg/dL
- Blood Glucose Concentration [1, 17]: 81 mg/dL
- Blood Glucose Concentration [1, 18]: 87 mg/dL
- absorption enhancing activity by alkyl chain length ([1]; ocular insulin, concentration not given): less absorption enhancing activity
- Ratio Cmax(alkylsacch)/Cmax(No alkylsacch) [3, 19]: ≦1.5
- Tmax [3, 19]: ~60 to 120 min
- Ratio Cmax(alkylsacch)/Cmax(No alkylsacch) [3, 20]: ≦1.5
- Tmax [3, 20]: ~60 to 120 min
- Ratio Cmax(alkylsacch)/Cmax(No alkylsacch) [3, 21]: ≧1.5
- Tmax [3, 21]: ~60 to 120 min
- Ratio Cmax(alkylsacch)/Cmax(No alkylsacch) [3, 22]: ≧1.5
- Tmax [3, 22]: ~5 to 15 min
- Ratio Cmax(alkylsacch)/Cmax(No alkylsacch) [3, 23]: ≧1.5
- Tmax [3, 23]: ~5 to 15 min
- Tmax [3, 24]: ~60 to 120 min
- Tmax [3, 25]: ~60 to 120 min
- Tmax [3, 26]: ~60 to 120 min
- Tmax [3, 27]: ~5 to 15 min
- Tmax [3, 28]: ~5 to 15 min
- Ratio Cmax(alkylsacch)/Cmax(No alkylsacch) [3, 29]: ≦1.5
- Tmax [3, 29]: ~60 to 120 min
- Ratio Cmax(alkylsacch)/Cmax(No alkylsacch) [3, 30]: ≦1.5
- Tmax [3, 30]: ~60 to 120 min
- Ratio Cmax(alkylsacch)/Cmax(No alkylsacch) [3, 31]: ≧1.5
- Tmax [3, 31]: ~60 to 120 min
- Ratio Cmax(alkylsacch)/Cmax(No alkylsacch) [3, 32]: ≧1.5
- Tmax [3, 32]: ~5 to 15 min
- Ratio Cmax(alkylsacch)/Cmax(No alkylsacch) [3, 33]: ≧1.5
- Tmax [3, 33]: ~5 to 15 min

Compound: dodecylsucrose [dodecyl sucrose]
- Blood Glucose Concentration [1, 4]: 305 mg/dL
- Blood Glucose Concentration [1, 5]: 266 mg/dL
- Blood Glucose Concentration [1, 6]: 351 mg/dL
- Blood Glucose Concentration [1, 7]: 347 mg/dL
- Blood Glucose Concentration [1, 8]: 252 mg/dL
- Blood Glucose Concentration [1, 9]: 161 mg/dL
- Blood Glucose Concentration [1, 10]: 120 mg/dL
- Blood Glucose Concentration [1, 11]: 105 mg/dL
- Blood Glucose Concentration [1, 12]: 114 mg/dL
- Blood Glucose Concentration [1, 13]: 113 mg/dL
- Blood Glucose Concentration [1, 14]: 104 mg/dL
- Blood Glucose Concentration [1, 15]: 86 mg/dL
- Blood Glucose Concentration [1, 16]: 113 mg/dL
- Blood Glucose Concentration [1, 17]: 107 mg/dL
- Blood Glucose Concentration [1, 18]: 112 mg/dL
- blood glucose level ([1]; insulin eye drops + […] alkyl saccharide, time 0 min): 335 mg/dL
- blood glucose level ([1]; insulin eye drops + […] alkyl saccharide, time 120 min): 150 mg/dL
- Tmax [3, 19]: ~60 min
- Tmax [3, 20]: ~5 to 15 min
- Tmax [3, 21]: ~5 to 15 min
- Tmax [3, 22]: ~5 to 15 min
- Tmax [3, 23]: ~5 to 15 min
- Tmax [3, 24]: ~60 min
- Tmax [3, 25]: ~5 to 15 min
- Tmax [3, 26]: ~5 to 15 min
- Tmax [3, 27]: ~5 to 15 min
- Tmax [3, 28]: ~5 to 15 min
- Tmax [3, 29]: ~60 min
- Tmax [3, 30]: ~5 to 15 min
- Tmax [3, 31]: ~5 to 15 min
- Tmax [3, 32]: ~5 to 15 min
- Tmax [3, 33]: ~5 to 15 min
